# Patent US20220073941A1, “HERBICIDE-RESISTANT CAMELINA SATIVA PLANTS, AND VARIANT CAMELINA ACETOHYDROXYACID SYNTHASE POLYPEPTIDES” (priority 2019, published 2022)
# “And” between values parts separate entries of the source, which are not always exact repeats. Equal entries are not always repeated.
# Experiments:
# Experiment in all cases: AHAS product feedback inhibition assay (leucine, isoleucine, valine)
# Type in all cases: biochemical, Camelina sativa
# [1] = tested on: AHAS, enzyme extract of MIDAS™; conditions: for Absorbance at 530 nm (AHAS product feedback inhibition assay, raw data), Avg: average of replicates per experiment; for Absorbance at 530 nm (AHAS product feedback inhibition assay, raw data): individual replicates, experiments 1-3; for % activity (AHAS activity as % of control): control 100 mM pyruvate, no added amino acid, per experiment (Exp. 1-3); for % activity (AHAS activity as % of control), means: means of 3 experiments
# Procedure: (§1) Briefly, for each of the three comparators, leaf and stem (petiole) material was bulk-harvested at the 3-4 leaf stage from at least 30 plantlets, snap-frozen in liquid nitrogen, and stored at −80° C. The AHAS in vitro assay was conducted according to the method of Singh et al (1988), with modifications by Yu (2010) and Rustgi (2014). For each comparator, 4 grams of frozen material were ground to a fine powder with a mortar and pestle in liquid nitrogen and homogenized in 1 volume of cold extraction buffer containing 100 mM potassium phosphate buffer (pH7.5), 10 mM sodium pyruvate, 5 mM MgCl2, 100 μM flavin adenine dinucleotide (FAD), and 10% glycerol. Four 2-mL microcentrifuge tubes were used for each comparator. The homogenate was centrifuged at 13,000 rpm for 10 min at 4° C., supernatant collected and re-centrifuged for an additional 10 minutes under the same conditions. For each tube, 1 mL of supernatant was pipetted into a new 2-mL microcentrifuge tube, and protein was precipitated by the addition of 1 mL of saturated ammonium sulfate. The solution was mixed well by vortex and allowed to stand on ice for 20 minutes, then centrifuged at 13,000 rpm at 4° C. The protein pellet was resuspended in 300 μL of reaction buffer containing 50 mM potassium phosphate buffer (pH7.5), 100 mM sodium pyruvate, 10 mM MgCl2, 1 mM EDTA, 10 μM FAD, 100 mM NaCl, and 1 mM thiamine pyrophosphate. Tubes of each comparator were combined, mixed well, kept on ice and immediately used in the AHAS activity and feedback inhibition assays.
# (§2) Total protein concentration of the crude extract was determined by the Bradford method (Bradford, 1976). All assays were conducted using 300 μg of total protein each.
# (§3) The feedback inhibition assay was performed by combining equal amounts of extract and amino acids leucine, isoleucine, or valine, respectively, in concentrations of 0.1 mM, 1 mM, 10 mM and 100 mM, according to Yu et al. (2010). The reaction mixture contained 50 μL enzyme extract and 50 μL 100 mM sodium pyruvate and inhibitor amino acid. The reaction was incubated at 37° C. for 60 minutes, then stopped and acetolactate converted to acetoin with the addition of 20 μL of 6 N H2SO4 and incubated at 60° C. for 15 minutes. A separate background “blank” was included for each sample group by adding 20 μL of 6 N H2SO4 prior to the addition of the enzyme extracts. Then, 95 μL of 0.55% w/v creatine solution and 95 μL of α-naphthol solution (5.5% w/v in 5 N NaOH) were added and the mixture incubated at 60° C. for a further 15 minutes. After cooling to room temperature for 15 minutes, enzyme activity was determined colorimetrically by reading the absorbance at 530 nm. Three independent experiments were conducted. Experiment 1 and 2 each contained 2 technical replicates, while experiment 3 included 3 technical replicates.
# [2] = tested on: AHAS, enzyme extract of 14CS0851-01-14; conditions: for Absorbance at 530 nm (AHAS product feedback inhibition assay, raw data), Avg: average of replicates per experiment; for Absorbance at 530 nm (AHAS product feedback inhibition assay, raw data): individual replicates, experiments 1-3; for sensitivity of AHAS to feedback inhibition, comparison of enzyme extracts: extracts of 14CS0851-01-14, SRS 934 and MIDAS™ compared, 1 mM, 10 mM, 100 mM; for % activity (AHAS activity as % of control): control 100 mM pyruvate, no added amino acid, per experiment (Exp. 1-3); for % activity (AHAS activity as % of control), means: means of 3 experiments
# Procedure: as §1, §2, §3
# [3] = tested on: AHAS, enzyme extract of SRS 934; conditions: for Absorbance at 530 nm (AHAS product feedback inhibition assay, raw data), Avg: average of replicates per experiment; for Absorbance at 530 nm (AHAS product feedback inhibition assay, raw data): individual replicates, experiments 1-3; for % activity (AHAS activity as % of control): control 100 mM pyruvate, no added amino acid, per experiment (Exp. 1-3); for % activity (AHAS activity as % of control), means: means of 3 experiments
# Procedure: as §1, §2, §3
# [4] = 1 mM amino acid final concentration
# [5] = 10 mM amino acid final concentration
# [6] = 100 mM amino acid final concentration
SMILES,"Absorbance at 530 nm (AHAS product feedback inhibition assay, raw data), Avg [1, 4]","Absorbance at 530 nm (AHAS product feedback inhibition assay, raw data) [1, 4]","Absorbance at 530 nm (AHAS product feedback inhibition assay, raw data), Avg [1, 5]","Absorbance at 530 nm (AHAS product feedback inhibition assay, raw data) [1, 5]","Absorbance at 530 nm (AHAS product feedback inhibition assay, raw data), Avg [1, 6]","Absorbance at 530 nm (AHAS product feedback inhibition assay, raw data) [1, 6]","Absorbance at 530 nm (AHAS product feedback inhibition assay, raw data), Avg [2, 4]","Absorbance at 530 nm (AHAS product feedback inhibition assay, raw data) [2, 4]","Absorbance at 530 nm (AHAS product feedback inhibition assay, raw data), Avg [2, 5]","Absorbance at 530 nm (AHAS product feedback inhibition assay, raw data) [2, 5]","Absorbance at 530 nm (AHAS product feedback inhibition assay, raw data), Avg [2, 6]","Absorbance at 530 nm (AHAS product feedback inhibition assay, raw data) [2, 6]","sensitivity of AHAS to feedback inhibition, comparison of enzyme extracts [2]","Absorbance at 530 nm (AHAS product feedback inhibition assay, raw data), Avg [3, 4]","Absorbance at 530 nm (AHAS product feedback inhibition assay, raw data) [3, 4]","Absorbance at 530 nm (AHAS product feedback inhibition assay, raw data), Avg [3, 5]","Absorbance at 530 nm (AHAS product feedback inhibition assay, raw data) [3, 5]","Absorbance at 530 nm (AHAS product feedback inhibition assay, raw data), Avg [3, 6]","Absorbance at 530 nm (AHAS product feedback inhibition assay, raw data) [3, 6]",% activity (AHAS activity as % of control) ([1]; 1 mM final concentration),also measured
CC(C)C[C@H](N)C(=O)O [leucine],0.2245 and 0.180 and 0.106,0.215 and 0.234 and 0.198 and 0.162 and 0.102 and 0.105 and 0.112,0.1775 and 0.166 and 0.093,0.178 and 0.177 and 0.181 and 0.150 and 0.096 (2×) and 0.088,0.148 and 0.152 and 0.090,0.142 and 0.154 and 0.153 and 0.150 and 0.078 and 0.096 (2×),0.204 and 0.149 and 0.094,0.214 and 0.194 and 0.162 and 0.136 and 0.079 and 0.099 and 0.105,0.174 and 0.136 and 0.064,0.183 and 0.165 and 0.151 and 0.120 and 0.066 and 0.061 and 0.067,0.122 and 0.056,0.146 and 0.14 and 0.138 and 0.105 and 0.051 and 0.060 and 0.057,no significant difference,0.204 and 0.192 and 0.089,0.2 and 0.208 and 0.225 and 0.158 and 0.097 and 0.085 and 0.086,0.1785 and 0.162 and 0.085,0.17 and 0.187 and 0.163 and 0.140 and 0.092 and 0.091 and 0.071,0.1475 and 0.136 and 0.080,0.154 and 0.141 and 0.167 and 0.104 and 0.084 and 0.068 and 0.089,–,–
CC(C)C[C@H](N)C(=O)O [Leu],–,–,–,–,–,–,–,–,–,–,–,–,–,–,–,–,–,–,–,50.4% and 63.2% and 45.2%,"% activity (AHAS activity as % of control), means ([1]; 1 mM final concentration): 52.9%; % activity (AHAS activity as % of control) ([1]; 10 mM final concentration): 39.8% and 58.2% and 39.6%; % activity (AHAS activity as % of control), means ([1]; 10 mM final concentration): 45.9%; % activity (AHAS activity as % of control) ([1]; 100 mM final concentration): 33.2% and 53.3% and 38.1%; % activity (AHAS activity as % of control), means ([1]; 100 mM final concentration): 41.6%; % activity (AHAS activity as % of control) ([2]; 1 mM final concentration): 48.8% and 63.7% and 57.9%; % activity (AHAS activity as % of control), means ([2]; 1 mM final concentration): 56.8%; % activity (AHAS activity as % of control) ([2]; 10 mM final concentration): 41.6% and 58.1% and 39.5%; % activity (AHAS activity as % of control), means ([2]; 10 mM final concentration): 46.4%; % activity (AHAS activity as % of control) ([2]; 100 mM final concentration): 34.2% and 52.1%; % activity (AHAS activity as % of control), means ([2]; 100 mM final concentration): 40.2%; % activity (AHAS activity as % of control) ([3]; 1 mM final concentration): 51.5% and 83.5% and 45.2%; % activity (AHAS activity as % of control), means ([3]; 1 mM final concentration): 60.1%; % activity (AHAS activity as % of control) ([3]; 10 mM final concentration): 45.1% and 70.4% and 43.0%; % activity (AHAS activity as % of control), means ([3]; 10 mM final concentration): 52.8%; % activity (AHAS activity as % of control) ([3]; 100 mM final concentration): 37.2% and 59.1% and 40.6%; % activity (AHAS activity as % of control), means ([3]; 100 mM final concentration): 45.7%"
CC[C@H](C)[C@H](N)C(=O)O [isoleucine],0.327 and 0.238 and 0.141,0.306 and 0.348 and 0.271 and 0.204 and 0.136 and 0.138 and 0.149,0.2675 and 0.192,0.275 and 0.208 and 0.176 and 0.100 and 0.107 and 0.102,0.195 and 0.077,0.194 and 0.176 and 0.149 and 0.080 and 0.075 and 0.078,0.296 and 0.229 and 0.105,0.305 and 0.287 and 0.238 and 0.220 and 0.106 and 0.104,0.209 and 0.186 and 0.088,0.217 and 0.201 and 0.200 and 0.171 and 0.087 and 0.082 and 0.094,0.182 and 0.145 and 0.061,0.188 and 0.176 and 0.70 and 0.120 and 0.061 and 0.072 and 0.052,no significant difference,0.2535 and 0.224 and 0.115,0.251 and 0.256 and 0.245 and 0.203 and 0.120 and 0.111 and 0.114,0.234 and 0.187 and 0.093,0.233 and 0.235 and 0.219 and 0.154 and 0.091 and 0.089 and 0.100,0.186 and 0.156 and 0.069,0.196 and 0.176 and 0.177 and 0.134 and 0.065 and 0.069 and 0.073,–,–
CC(C)[C@H](N)C(=O)O [Val],–,–,–,–,–,–,–,–,–,–,–,–,–,–,–,–,–,–,–,55.6% and 49.8% and 71.2%,"% activity (AHAS activity as % of control), means ([1]; 1 mM final concentration): 58.9%; % activity (AHAS activity as % of control) ([1]; 10 mM final concentration): 48.0% and 47.5% and 67.0%; % activity (AHAS activity as % of control), means ([1]; 10 mM final concentration): 54.2%; % activity (AHAS activity as % of control) ([1]; 100 mM final concentration): 40.7% and 37.8% and 58.2%; % activity (AHAS activity as % of control), means ([1]; 100 mM final concentration): 45.6%; % activity (AHAS activity as % of control) ([2]; 1 mM final concentration): 51.0% and 49.1% and 88.5%; % activity (AHAS activity as % of control), means ([2]; 1 mM final concentration): 62.8%; % activity (AHAS activity as % of control) ([2]; 10 mM final concentration): 46.9% and 45.0% and 76.1%; % activity (AHAS activity as % of control), means ([2]; 10 mM final concentration): 56.0%; % activity (AHAS activity as % of control) ([2]; 100 mM final concentration): 35.5% and 34.8% and 66.2%; % activity (AHAS activity as % of control), means ([2]; 100 mM final concentration): 45.5%; % activity (AHAS activity as % of control) ([3]; 1 mM final concentration): 58.3% and 47.9% and 78.7%; % activity (AHAS activity as % of control), means ([3]; 1 mM final concentration): 61.7%; % activity (AHAS activity as % of control) ([3]; 10 mM final concentration): 46.5% and 47.0% and 77.8%; % activity (AHAS activity as % of control), means ([3]; 10 mM final concentration): 57.1%; % activity (AHAS activity as % of control) ([3]; 100 mM final concentration): 41.0% and 35.4% and 61.7%; % activity (AHAS activity as % of control), means ([3]; 100 mM final concentration): 46.1%"
CC(C)[C@H](N)C(=O)O [valine],0.2475 and 0.203 and 0.117,0.252 and 0.243 and 0.239 and 0.166 and 0.115 and 0.116 and 0.122,0.214 and 0.191 and 0.112,0.205 and 0.223 and 0.217 and 0.113 and 0.110 and 0.112,0.1815 and 0.166 and 0.089,0.174 and 0.189 and 0.171 and 0.161 and 0.084 and 0.091 and 0.092,0.213 and 0.207 and 0.080,0.216 and 0.21 and 0.227 and 0.187 and 0.079 and 0.080 and 0.082,0.196 and 0.178 and 0.073,0.203 and 0.189 and 0.190 and 0.166 and 0.057 and 0.84 and 0.80,0.1485 and 0.155 and 0.057,0.155 and 0.142 and 0.176 and 0.133 and 0.054 and 0.061 and 0.056,no significant difference,0.231 and 0.181 and 0.094,0.236 and 0.226 and 0.198 and 0.163 and 0.086 and 0.098 and 0.100,0.184 and 0.179 and 0.093,0.186 and 0.182 and 0.206 and 0.151 and 0.091 (2×) and 0.096,0.1625 and 0.142 and 0.070,0.168 and 0.157 and 0.184 and 0.100 and 0.071 and 0.072 and 0.067,–,–
